Assay results from patent publication US11426441B2, “Composition comprising protein phosphatase 1 inhibitory peptide for treating vascular diseases” (BethphaGen Inc., priority 2016, dated 2022).

Tests used:
[1] = tested on: SERCA2a; assay: A23187-induced SERCA2a degradation in HCSMCs; assay type: cell-based, human
Procedure: (§1) FIGS. 4a, 4b, 4c and 4d. (4a-4c) HCSMCs were pretreated with 3 μM ψPLB-SE and 15 μM MDL28170 for 1 hour, and then treated with 50 μM A23187 for 2 hours. (4a) Immunostaining was performed with antibodies against SERCA2a and SERCA2b (green). Nuclei were stained with Hoechst (blue). Representative merged images are shown. Scale bar, 50 μm. (4b) Western blot analysis was performed with cell extracts. Data are expressed as the means±SD (n=3-4; *, P<0.05). (4c) Baseline Ca^2+ concentration was measured by lonOptix calcium imaging system. (4d) RASMC were treated with ψPLB-SE or control peptide under the same conditions as described for FIG. 1B. The baseline Ca^2+ concentration was measured by lonOptix calcium imaging system (*, P<0.05).
The rat aortic smooth muscle cells (RASMCs) were isolated from the medial layer of the thoracic aorta derived from male Sprague-Dawley rats (body weight, 180-200 g) by an enzymatic reaction with collagenase (50 U/mL, Worthington) and pancreatic elastase (0.25 mg/mL, Sigma-Aldrich) for 4 hours at 37. The cells were collected and resuspended in DMEM containing 20% (v/v) fetal bovine serum. The resuspension was then plated on collagen I (Sigma-Aldrich)-coated glass coverslips and incubated at 37 in an atmosphere of 5% (v/v) CO2 and 95% (v/v) air. Human coronary smooth muscle cells (HCSMCs), pulmonary arterial endothelial cells (PAECs), and pulmonary arterial smooth muscle cells (PASMCs) were purchased from Lonza and cultured in EBM or SmBM (Lonza) supplemented with 0.5 mg/mL hEGF, […], 1 mg/mL hFGF, […] gentamicin/amphotericin-B, and 5% fetal bovine serum. All the cells were cultured at 37 in 5% (v/v) CO2 and 95% (v/v) air. RASMCs and HCSMCs were, respectively, plated at the densities of 1×10^4 cells/cm^2 and 1×10^5 cells/cm^2 for immunostaining and western blotting experiments. […]
Vascular smooth muscle cells (VSMCs) were homogenized in a minimal volume of 50 mM Tris-HCl, pH 7.4, supplemented with a broad-spectrum protease inhibitor cocktail (Calbiochem). […] The blots were scanned and quantified using LAS software.

[2] = tested on: cytosolic Ca^2+ level; assay: Intracellular Ca2+ measurement in HCSMCs; assay type: cell-based, human
Procedure: as §1
The intracellular Ca^2+ level was measured in VSMCs by loading cells with 0.5 μM Fura2-AM (Molecular Probes, Eugene Oreg., USA), a Ca^2+-sensitive indicator, for 15 minutes at 37. The fluorescence was recorded using the lonOptix calcium imaging system. VSMCs were stimulated by the exposure to light emitted by a 75 W halogen lamp through either a 340 nm or 380 nm filter. The fluorescent emissions were detected between 480 nm and 520 nm by a photomultiplier tube after an initial illumination at 340 nm for 0.5 second and then at 380 nm during recording. The 340 nm excitation scan was repeated at the end of the protocol, and qualitative changes in the intracellular Ca^2+ level were inferred from the ratio of the Fura2 fluorescent intensity at both wavelengths.

[3] = tested on: eNOS and Akt; assay: eNOS and Akt phosphorylation in PAECs (western blotting); assay type: cell-based; details: 100 nM okadaic acid
Procedure: FIGS. 16a, 16b and 16c. (16a-16b) PAECs were treated with 3 μM ψPLB-SE for 1 hour, and protein expression was quantitatively analyzed through western blotting using antibodies against Phospho-eNOS (ser1177), total eNOS, phospho-Akt (Ser473, Thr308), total Akt, and GAPDH. (16c) The pulmonary tissue lysate was subjected to immunoprecipitation using PP1 antibody to investigate the interactions of PP1 with eNOS and Akt depending on the presence or absence of the treatment with ψPLB-SE using respective antibodies therefor.
FIGS. 17a, 17b and 17c. (17a) PAECs were treated with 50 μM LY294002, a PI3K inhibitor, for 24 hours, and then treated with 3 μM ψPLB-SE for 1 hour. Protein expression was quantitatively analyzed through western blotting using antibodies against Phospho-eNOS (ser1177), total eNOS, phospho-Akt (Ser473, Thr308), total Akt, and GAPDH. (17b) PAECs were treated with 10 μM inhibitor IV, an Akt inhibitor, for 2 hours, and then treated with 3 μM ψPLB-SE for 1 hour. Protein expression was quantitatively analyzed through western blotting using antibodies against total eNOS and GAPDH. (17c) PAECs were treated with 100 nM OA, a PP1 inhibitor, for 24 hours, and then treated with 3 μM ψPLB-SE for 1 hour. Protein expression was quantitatively analyzed through western blotting using antibodies against Phospho-eNOS (ser1177), total eNOS, phospho-Akt (Ser473, Thr308), total Akt, and GAPDH.
ψPLB-SE (RAE16TIEMPQ; SEQ ID NO: 2) was derived from the PLB protein sequence surrounding the Ser16 phosphorylation site. To facilitate uptake into cells, the peptide was conjugated to the cell penetrating peptide dNP2 ([…]; SEQ ID NO: 21) or TAT (YGRKKRRQRRR; SEQ ID NO: 22). The peptides used in the present invention were PLB-SE (RAETIEMPQ; SEQ ID NO: 2) and control peptide (RASTIEMPQ; SEQ ID NO: 23). PLB-SE and cell penetrating peptide were connected by a linker peptide (GGG; SEQ ID NO: 24) The peptides (purity of 95% or higher, AnyGen, Gwangju, Korea) was resuspended in double-distilled water or physiological saline at a stock concentration of 3 mM (cells), 2.5 mg/ml (rats), or 500 μg/ml (mice). The rats were treated with 1 mg/kg peptides and mice were treated with 2 mg/kg peptides. The rat aortic smooth muscle cells (RASMCs), human coronary smooth muscle cells (HCSMCs), pulmonary arterial endothelial cells (PAECs), and pulmonary arterial smooth muscle cells (PASMCs) were treated with the peptides at a final concentration of 3 μM for 1 hour. The PI3K inhibitor LY294002 (Millipore, USA), the Akt inhibitor Inhibitor IV (Calbiochem, USA), and the PP1 inhibitor okadaic acid (Sigma Aldrich, USA), used in the experiments using pulmonary arterial endothelial cells (PAECs), were purchased. For the monocrotaline aqueous solution, the monocrotaline powder (Sigma Aldrich, USA) was dissolved in a small amount of a 1 M hydrochloric acid solution (HCL), diluted with sterilized distilled water, and adjusted to pH 7.35 by addition of sodium hydroxide (NaOH). The animals were bred and observed in the same conditions as in the control group during the experiment periods. In addition, the calcium ionophore A23187 and the calpain I and II inhibitors MDL28170 and […] were purchased from Sigma-Aldrich (St. Louis, Mo., USA).
Vascular smooth muscle cells (VSMCs) were homogenized in a minimal volume of 50 mM Tris-HCl, pH 7.4, supplemented with a broad-spectrum protease inhibitor cocktail (Calbiochem). The proteins were separated by SDS-PAGE and then transferred to polyvinylidene fluoride membranes (Schleicher & Schuell). After blocking with 5% (w/v) non-fat milk for 1 hour and washing with TBST, the membranes were incubated with antibodies against SERCA2a, SERCA2b (21st century biochemical), PCNA (abcam), GAPDH (Sigma-Aldrich), phospho-eNOS, eNOS, phospho-eIF2α, eIF2α (cell signaling), Vimentin, α-SMA, BMPR2 (Santa cruz), phospho-Akt, Akt (cell signaling), phospho-phospholamban (Merck), and Phospholamban (cell signaling). […]

[4] = tested on: SERCA2a; assay: SERCA2a level and stability in RASMCs (immunostaining, western blotting); assay type: cell-based, rat; details: synthetic conditions, calpain inhibitor
Procedure: (§2) Rat aortic smooth muscle cells (RASMCs) were fixed in 4% (w/v) paraformaldehyde at room temperature for 10 min, washed with PBS, and then transmitted with 0.1% (v/v) Triton X-100 in PBS for 40 min. After washing and blocking with 3% (w/v) BSA in PBS, the cells were incubated overnight at room temperature with antibodies against SERCA2a (1:250), SERCA2b (1:250), and PCNA (1:50). On the following day, the cells were washed with PBS and incubated with anti-rabbit and anti-mouse IgG conjugated to Alexa Fluor 488 and 594, respectively, for 1 hour at room temperature. The cells were treated with FluoroGuard antifade reagent (Bio-Rad, Hercules, Calif., USA), and the coverslips were examined under a fluorescent microscope.
Vascular smooth muscle cells (VSMCs) were homogenized in a minimal volume of 50 mM Tris-HCl, pH 7.4, supplemented with a broad-spectrum protease inhibitor cocktail (Calbiochem). The proteins were separated by SDS-PAGE and then transferred to polyvinylidene fluoride membranes (Schleicher & Schuell). After blocking with 5% (w/v) non-fat milk for 1 hour and washing with TBST, the membranes were incubated with antibodies against SERCA2a, SERCA2b (21st century biochemical), PCNA (abcam), GAPDH (Sigma-Aldrich), phospho-eNOS, eNOS, phospho-eIF2α, eIF2α (cell signaling), Vimentin, α-SMA, BMPR2 (Santa cruz), phospho-Akt, Akt (cell signaling), phospho-phospholamban (Merck), and Phospholamban (cell signaling). The membranes were then incubated with horseradish peroxidase-conjugated secondary antibodies (Jackson ImmunoResearch, West Grove, Pa., USA) and developed using a chemiluminescent substrate (Dogen). The blots were scanned and quantified using LAS software.
RASMCs were cultured in DMEM supplemented with 0.1% (v/v) FBS (Contractile) or in DMEM supplemented with 10% (v/v) FBS (Synthetic) in the presence of 3 μM control or ψPLB-SE peptide. Cycloheximide (Sigma) was added to media to a final concentration of 5 μg/ml. Cells were harvested after 0, 3, and 5 days of incubation and their protein extracts were subjected to western blotting.

[5] = tested on: rat aortic smooth muscle cells (RASMCs); assay: RASMC proliferation (PCNA immunostaining, EZ-CyTox cell viability assay); assay type: cell-based; details: RASMCs, synthetic conditions, calpain inhibitor
Procedure: The rat aortic smooth muscle cells (RASMCs) were isolated from the medial layer of the thoracic aorta derived from male Sprague-Dawley rats (body weight, 180-200 g) by an enzymatic reaction with collagenase (50 U/mL, Worthington) and pancreatic elastase (0.25 mg/mL, Sigma-Aldrich) for 4 hours at 37. The cells were collected and resuspended in DMEM containing 20% (v/v) fetal bovine serum. The resuspension was then plated on collagen I (Sigma-Aldrich)-coated glass coverslips and incubated at 37 in an atmosphere of 5% (v/v) CO2 and 95% (v/v) air. Human coronary smooth muscle cells (HCSMCs), pulmonary arterial endothelial cells (PAECs), and pulmonary arterial smooth muscle cells (PASMCs) were purchased from Lonza and cultured in EBM or SmBM (Lonza) supplemented with 0.5 mg/mL hEGF, […], 1 mg/mL hFGF, […] gentamicin/amphotericin-B, and 5% fetal bovine serum. All the cells were cultured at 37 in 5% (v/v) CO2 and 95% (v/v) air. RASMCs and HCSMCs were, respectively, plated at the densities of 1×10^4 cells/cm^2 and 1×10^5 cells/cm^2 for immunostaining and western blotting experiments. For RASMC and PASMC cell proliferation experiments, these cells were cultured in fetal bovine serum-free media for 3 days, and then proliferation was induced by serum addition.
as §2, with “microscope. […]” for “microscope.”

[6] = HCSMCs, 50 μM A23187 for 2 hours
[7] = HCSMCs pretreated 1 hour with 3 μM ψPLB-SE or 15 μM MDL28170, then 50 μM A23187 2 hours

## CNc1ccc2oc(C[C@H]3O[C@@]4(CC[C@H]3C)O[C@H]([C@H](C)C(=O)c3ccc[nH]3)[C@H](C)C[C@H]4C)nc2c1C(=O)O [A23187]
[1]; [6]
  degradation of SERCA2a: evoked the degradation
[2]; [6]
  cytosolic Ca^2+ level: elevation

## C=C1[C@@H](O)[C@@H]2O[C@]3(CC[C@H](/C=C/[C@@H](C)[C@@H]4CC(C)=C[C@@]5(O[C@H](C[C@@](C)(O)C(=O)O)CC[C@H]5O)O4)O3)CC[C@H]2O[C@@H]1[C@@H](O)C[C@H](C)[C@H]1O[C@@]2(CCCCO2)CC[C@H]1C [okadaic acid, reference compound]
[3]
  phosphorylation of Akt and eNOS: increased

## MDL28170 [reference compound]
[4]
  degradation of SERCA2a (immunostaining): inhibited
  degradation of SERCA2a (western blotting): protective effect
[5]
  PCNA level: decreased
[1]; [7]
  A23187 (Ca^2+)-dependent degradation of SERCA2a: completely blocked
[2]; [7]
  elevation of the cytosolic Ca^2+ level by A23187: not
